The experiment can be described thus: Displacement of [125I]-ASOR from asialoglycoprotein receptor in mouse parenchymal liver cells after 2 hrs.

`COc1cc2c(c(OC)c1OC)-c1ccc(OC)c(=O)cc1[C@@H](NC(=O)CCSSCCC(=O)NC(CCCCNC(=O)[C@@H](CCCCNC(=O)CCCCO[C@@H]1O[C@H](CO)[C@H](O)[C@H](O)[C@H]1NC(C)=O)NC(=O)CCCCO[C@@H]1O[C@H](CO)[C@H](O)[C@H](O)[C@H]1NC(C)=O)C(=O)O)CC2` (stereo partly specified): affinity was put at a Ki of 4.5 nM.

For the origin of these results see ChEMBL document CHEMBL4145450, “Colchicine prodrugs and codrugs: Chemistry and bioactivities” (Eur J Med Chem, 2018).
